One series in a line: Acute toxicity in mice. To be noted: in vivo, mouse, after one week. As to the method:
(§1) (1) Acute toxicity and tonic convulsion in hind paw:
(§2) The acute toxicity and tonic convulsion occured by stimulus by hand touch were determined in the following manner to give the results shown in Table 2.
(a) Acute toxicity in mice:
38 Groups, each consisting of 5 mice (male dd-strain, weight -- 18 to 24 g), were used for the test and control groups. The compounds shown in Table 2 were administered orally or intraperitoneally to the mice. After one week, the survival ratio was measured.

The next series relates to Cholesterol in the serum. Nature of the series: Cholesterol-lowering activity on normal rats of Wistar strain (serum cholesterol, liver weight). In kind it is in vivo, rats (male Wistar strain). To be noted: continuous administration for 4 days, 0.3% in diet. How it is done: (3) Cholesteral-lowering activity on normal rats of Wistar strain:
(i) 22 Groups, each consisting of 5 rats (male Wistar strain, weight -- 150 to 180 g) were used for the test and control groups. After this, the blood samples were collected by decapitation and then the corpuscle was removed by centrifugation. Cholesterol in the serum was determined by Zurkowski's method modified by Shibata and also the liver was excised and weighed. The results are shown in Table 4 wherein the ratio of 100% denotes the amount of chloresterol and the weight of the liver of normal rats fed with powdery diet without the addition of the compound.

The nature of the next series: Acute toxicity in rats. To be noted: in vivo; rat, oral administration, after one week; read-out: Acute Toxicity (LD50), C. How it is done:
as §1, §2
(b) Acute toxicity in rats:
28 Groups, each consisting of 5 rats (male Wistar strain, weight -- 200 g), were used for the test and control groups. The compounds shown in Table 2 were orally administered to the rats. After one week, the survival ratio was measured.

Series [1] deals with hyperlipemia induced by Triton. Put plainly: Cholesterol-lowering activity on hyperlipemia induced by Triton in mice. In kind it is in vivo, mice (male dd-strain). The note with it: Mus musculus, po, 43 h, read-out: Ratio of the reduction of cholesterol. As to the method: (2) Cholesterol-Lowering activity on hyperlipemia induced by Triton in mice:
38 Groups, each consisting of 9 mice (male dd-strain, weight -- 19 to 21 g), were used for the test and control groups. […] Immediately after the administration and also after 20 hours from the administration of Triton, the mice were orally administered with 100 mg/kg of the compound shown in Table 3. 43 hours after the administration of Triton, the blood samples were collected by decapitation and then the corpuscle was removed by centrifugation. Cholesterol in the serum was determined by Zurkowski's method modified by Shibata (color of the test solution was developed by using sulfoalicyclic acid, acetic acid and sulfuric acid and the optical density of the solution was determined at 620 mμ.

[2] abbreviates: oral administration, read-out: Acute Toxicity (LD50), A.
Where [3] appears, read: ip, intraperitoneal administration, read-out: Acute Toxicity (LD50), B.

The results in this text go back to patent US4138485A, “Phenylalanine derivatives” (Kyowa Hakko Kogyo Kabushiki Kaisha, priority 1976, dated 1979).

Consider `COC(=O)C(Cc1ccccc1)NC(=O)SCc1ccccc1` (racemic) [Compound 19, N-benzylthiocarbonyl-D,L-phenylalanine methylester], for which the LD50 at 168 h in the series “Acute toxicity in mice” (setting [2]) is more than 1000 mg/kg; in the series “Acute toxicity in rats”, more than 100 mg/kg. For the same compound, in the series on Cholesterol in the serum, the “B - Ratio of decrease of liver weight” value worked out at 19.8%. In addition, the inhibition in vivo at 100 mg/kg in series [1] turned out to be 84%.

Consider `Cc1ccc(CSC(=O)NC(Cc2ccccc2)C(=O)O)cc1` (racemic) [Compound 35, N-(4-methylbenzylthiocarbonyl)-DL-phenylalanine], for which, in “Acute toxicity in mice” (setting [2]), the LD50 at 168 h was more than 1000 mg/kg. In series [1], the inhibition in vivo at 100 mg/kg stood at 22%.

Regarding `CCOC(=O)[C@H](Cc1ccccc1)NC(=O)SCc1ccc(C)cc1` [Compound 3, N-(4-methylbenzylthiocarbonyl)-L-phenylalanine ethylester], the LD50 at 168 h in the series “Acute toxicity in mice” (setting [2]) is more than 1000 mg/kg. In series [1], the inhibition in vivo at 100 mg/kg was 57%.

In the case of `Cc1ccc(CSC(=O)N[C@@H](Cc2ccccc2)C(N)=O)cc1` [Compound 4, N-(4-methylbenzylthiocarbonyl)-L-phenylalanine amide], the LD50 at 168 h was more than 100 mg/kg in “Acute toxicity in mice” (setting [3]), more than 1000 mg/kg in “Acute toxicity in mice” (setting [2]) and more than 100 mg/kg in the series “Acute toxicity in rats”. The “B - Ratio of decrease of liver weight” value in the series on Cholesterol in the serum is reported as 6.2%. Further, the inhibition in vivo at 100 mg/kg in series [1] amounted to 23%.

On to `CCNC(=O)[C@H](Cc1ccccc1)NC(=O)SCc1ccc(C)cc1` [Compound 5, N-(4-methylbenzylthiocarbonyl)-L-phenylalanine ethylamide], for which the figures for the LD50 at 168 h in “Acute toxicity in mice” (setting [3]), in the series “Acute toxicity in mice” (setting [2]) and in “Acute toxicity in rats” were more than 100 mg/kg, more than 1000 mg/kg and more than 100 mg/kg, respectively. In series [1], the inhibition in vivo at 100 mg/kg was 0%.

For the compound `COC(=O)[C@H](Cc1ccccc1)NC(=O)[C@H](Cc1ccccc1)NC(=O)SCc1ccc(C)cc1` [Compound 6, N-(4-methylbenzylthiocarbonyl)-L-phenylalanyl-L-phenylalanine methylester], the LD50 at 168 h in the series “Acute toxicity in mice” (setting [3]) was more than 100 mg/kg; in “Acute toxicity in mice” (setting [2]), more than 300 mg/kg; in “Acute toxicity in rats”, more than 100 mg/kg. For the same compound, the inhibition in vivo at 100 mg/kg in series [1] came out at 39%.

As to `O=C(N[C@@H](Cc1ccccc1)C(=O)O)SCc1ccc(Cl)cc1` [Compound 7, N-(4-chlorobenzylthiocarbonyl)-L-phenylalanine], the LD50 at 168 h in the series “Acute toxicity in mice” (setting [3]) is more than 100 mg/kg; in “Acute toxicity in mice” (setting [2]) it was more than 300 mg/kg; in “Acute toxicity in rats”, more than 100 mg/kg. Moreover, the inhibition in vivo at 100 mg/kg in series [1] was determined as 94%.

On to `COC(=O)[C@H](Cc1ccccc1)NC(=O)SCc1ccc(Cl)cc1` [Compound 8, N-(4-chlorobenzylthiocarbonyl)-L-phenylalanine methylester], for which the figures for the LD50 at 168 h in the series “Acute toxicity in mice” (setting [3]), in “Acute toxicity in mice” (setting [2]) and in “Acute toxicity in rats” were more than 100 mg/kg, more than 4000 mg/kg and more than 200 mg/kg, respectively. Further, the inhibition in vivo at 100 mg/kg in series [1] is 88%.

Take `NC(=O)[C@H](Cc1ccccc1)NC(=O)SCc1ccc(Cl)cc1` [Compound 9, N-(4-chlorobenzylthiocarbonyl)-L-phenylalanine amide]: the LD50 at 168 h was more than 100 mg/kg in the series “Acute toxicity in mice” (setting [3]), more than 1000 mg/kg in the series “Acute toxicity in mice” (setting [2]) and more than 100 mg/kg in the series “Acute toxicity in rats”. For the same compound, the “B - Ratio of decrease of liver weight” value in the series with Cholesterol in the serum was found to be 71%. In addition, the inhibition in vivo at 100 mg/kg in series [1] turned out to be 57%.

In the case of `CCNC(=O)[C@H](Cc1ccccc1)NC(=O)SCc1ccc(Cl)cc1` [Compound 10, N-(4-chlorobenzylthiocarbonyl)-L-phenylalanine ethylamide], the LD50 at 168 h in the series “Acute toxicity in mice” (setting [3]) is more than 100 mg/kg; in the series “Acute toxicity in mice” (setting [2]) it was more than 300 mg/kg; in the series “Acute toxicity in rats”, more than 100 mg/kg. Moreover, the inhibition in vivo at 100 mg/kg in series [1] worked out at 43%.

For the compound `COC(=O)[C@H](Cc1ccccc1)NC(=O)[C@H](Cc1ccccc1)NC(=O)SCc1ccc(Cl)cc1` [Compound 11, N-(4-chlorobenzylthiocarbonyl)-L-phenylalanyl-L-phenylalanine methylester], the LD50 at 168 h is more than 100 mg/kg in “Acute toxicity in mice” (setting [3]), more than 300 mg/kg in “Acute toxicity in mice” (setting [2]) and more than 100 mg/kg in the series “Acute toxicity in rats”. Further, the inhibition in vivo at 100 mg/kg in series [1] was 75%.

`COC(=O)[C@H](Cc1ccccc1)NC(=O)SCc1ccc(OC)cc1` [Compound 13, N-(4-methoxybenzylthiocarbonyl)-L-phenylalanine methylester]: the LD50 at 168 h was more than 100 mg/kg in “Acute toxicity in mice” (setting [3]), more than 1000 mg/kg in the series “Acute toxicity in mice” (setting [2]) and more than 100 mg/kg in the series “Acute toxicity in rats”. Also, the “B - Ratio of decrease of liver weight” value in the series on Cholesterol in the serum came out at 38%. The inhibition in vivo at 100 mg/kg in series [1] was determined as 56%.

As for `O=C(N[C@@H](Cc1ccccc1)C(=O)O)SCc1ccc([N+](=O)[O-])cc1` [Compound 14, N-(4-nitrobenzylthiocarbonyl)-L-phenylalanine], the figures for the LD50 at 168 h in “Acute toxicity in mice” (setting [2]) and in “Acute toxicity in rats” were more than 1000 mg/kg and more than 100 mg/kg, respectively. Further, the “B - Ratio of decrease of liver weight” value in the series on Cholesterol in the serum is 48.0%. The inhibition in vivo at 100 mg/kg in series [1] amounted to 66%.

Consider `COC(=O)[C@H](Cc1ccccc1)NC(=O)SCc1ccc([N+](=O)[O-])cc1` [Compound 15, N-(4-nitrobenzylthiocarbonyl)-L-phenylalanine methylester], for which the LD50 at 168 h was more than 1000 mg/kg in the series “Acute toxicity in mice” (setting [2]) and more than 100 mg/kg in the series “Acute toxicity in rats”. For the same compound, the “B - Ratio of decrease of liver weight” value with Cholesterol in the serum is recorded as 38.9%. Moreover, the inhibition in vivo at 100 mg/kg in series [1] came out at 29%.

On to `COC(=O)[C@H](Cc1ccccc1)NC(=O)SCc1cccc(C)c1` [Compound 23, N-(3-methylbenzylthiocarbonyl)-L-phenylalanine methylester], for which, in “Acute toxicity in mice” (setting [2]), the LD50 at 168 h was more than 1000 mg/kg. Moreover, in series [1], the inhibition in vivo at 100 mg/kg turned out to be 48%.

On to `Cc1cccc(C)c1CSC(=O)N[C@@H](Cc1ccccc1)C(=O)O` [Compound 24, N-(2,6-dimethylbenzylthiocarbonyl)-L-phenylalanine], for which the LD50 at 168 h in the series “Acute toxicity in mice” (setting [2]) was more than 1000 mg/kg; in the series “Acute toxicity in rats” it was more than 100 mg/kg. Further, the “B - Ratio of decrease of liver weight” value in the series on Cholesterol in the serum is listed as 15.0%. Moreover, the inhibition in vivo at 100 mg/kg in series [1] is 34%.

For the compound `COC(=O)[C@H](Cc1ccccc1)NC(=O)SCc1c(C)cccc1C` [Compound 25], the LD50 at 168 h in the series “Acute toxicity in mice” (setting [2]) was more than 1000 mg/kg; in the series “Acute toxicity in rats” it was more than 100 mg/kg. In addition, in the series with Cholesterol in the serum, the “B - Ratio of decrease of liver weight” value was 45.3%. In addition, the inhibition in vivo at 100 mg/kg in series [1] is 37%.

As to `Cc1c(C)c(C)c(CSC(=O)N[C@@H](Cc2ccccc2)C(=O)O)c(C)c1C` [Compound 29, N-(2,3,4,5,6-pentamethylbenzylthiocarbonyl)-L-phenylalanine], the LD50 at 168 h in the series “Acute toxicity in mice” (setting [2]) was more than 1000 mg/kg; in the series “Acute toxicity in rats”, more than 100 mg/kg. Moreover, the inhibition in vivo at 100 mg/kg in series [1] is 59%.

In the case of `O=C(N[C@@H](Cc1ccccc1)C(=O)O)SCc1ccc(F)cc1` [Compound 33, N-(4-fluorobenzylthiocarbonyl)-L-phenylalanine], the LD50 at 168 h in the series “Acute toxicity in mice” (setting [2]) is more than 1000 mg/kg. In series [1], the inhibition in vivo at 100 mg/kg was determined as 79%.

Regarding `Cc1ccc(CSC(=O)N[C@H](Cc2ccccc2)C(=O)O)cc1` [Compound 34, N-(4-methylbenzylthiocarbonyl)-D-phenylalanine], the LD50 at 168 h in the series “Acute toxicity in mice” (setting [2]) was more than 1000 mg/kg. Further, the inhibition in vivo at 100 mg/kg in series [1] is 11%.

On to `CC(=O)Oc1ccc(CSC(=O)N[C@@H](Cc2ccccc2)C(=O)O)cc1` [Compound 36, N-(4-acetoxybenzylthiocarbonyl)-L-phenylalanine], for which the LD50 at 168 h in the series “Acute toxicity in mice” (setting [2]) is more than 1000 mg/kg. The inhibition in vivo at 100 mg/kg in series [1] is 83%.

As for `COC(=O)[C@H](Cc1ccccc1)NC(=O)SCc1ccc(O)cc1` [Compound 37, N-(4-hydroxybenzylthiocarbonyl)-L-phenylalanine methylester], in the series “Acute toxicity in mice” (setting [2]), the LD50 at 168 h was more than 1000 mg/kg. The inhibition in vivo at 100 mg/kg in series [1] amounted to 74%.
